The source of these data is US11786606B2, “Site-specific quantitation of drug conjugations” (Regeneron Pharmaceuticals, Inc., priority 2019, dated 2023).

In this assay the target is T1, papain (Carica papaya, UniProt P00784).
T1 sequence (P00784 134-345): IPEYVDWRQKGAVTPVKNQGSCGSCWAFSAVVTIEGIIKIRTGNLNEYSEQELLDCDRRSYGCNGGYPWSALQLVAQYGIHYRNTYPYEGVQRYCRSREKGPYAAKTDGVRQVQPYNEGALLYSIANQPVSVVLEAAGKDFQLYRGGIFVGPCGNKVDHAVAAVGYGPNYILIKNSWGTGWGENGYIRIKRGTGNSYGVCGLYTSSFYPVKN
As to the kind of experiment: Papain digestion to remove drug payloads from ADC linkers, monitored by LC-MS peak areas of surrogate peptides. Type of assay: biochemical. Particulars: papain to substrate ratio 1:200; peak areas of peptides containing cleaved linker. The method, then: According to the concentration of ADC samples, transfer 25 μg of each ADC sample to a new microcentrifuge tube and add water to a total volume of 10 μL. Dilute 20 uL of papain suspension (10 mg/mL) with 180 uL of papain digestion buffer, incubate at 37° C. for 30 min. Dilute 30 uL of papain (nominal concentration of 1 mg/mL) with 120 uL of activation buffer to a nominal concentration of 0.2 mg/mL. Measure papain concentration with UV (ultra-violate) measurement at 280 nm and 320 nm using papain activation buffer as the blank buffer. Dilute activated papain to a final concentration of 0.1 mg/mL with papain activation buffer. Add 1.25 uL of 0.1 mg/mL papain solution (enzyme:substrate ratio is 1:200) to intact ADC, incubate at 37° C. for 1 h. Add 0.5 μL of 0.1 M TCEP-HCl to each sample. Vortex the samples for 3 seconds, and then spin down the samples using a Minicentrifuge for 3 seconds. Incubate samples at 95° C. for 20 minutes with shaking at 800 rpm in a thermomixer. Following incubation, cool down the samples to room temperature for 5 minutes. Spin down the condensation using a Minicentrifuge for 3 seconds. Add 6 μL of 8 M urea in 1 M Tris-HCl, pH 7.5 to each sample. […]
Papain was used to remove the payloads of MAB1-LK1 ADCs. […] Two tryptic peptides, e.g., SCDK (serine-cysteine-aspartic acid-lysine) (SEQ ID NO: 7) and GEC (glycine-glutamic acid-cysteine), were analyzed using LC-MS. […]

Consider mal-amido-Val-Cit-PABA [LK3], for which the “incubation time for completion of papain digestion to remove drug payloads (cleaved linker monitored)” value is reported as “one”.
Then mal-amido-PEG8-VA-PABA [LK1], with “one”.
